{
  "source": "patent US20080161223A1",
  "about": "“Spirobornyl-2,4-(1,3-Dioxanes)] And Their Uses As Fragrance Ingredients” (GIVAUDAN SA, priority 2005, published 2008)",
  "data": [
    {"system": "not listed separately", "assay": "Relative odour threshold of constituents compared to the whole stereoisomer mixture", "settings": "ratio rac-1b: rac-1d: 1f", "source_text": "b) A 6:2:1 racemic mixture If of diastereomers of (1R*,2S*,2′S*,4R*,5′R*)-, (1R*,2S*,2′S*,4R*,5′S*)- and (1R*,2S*,2′R*,4R*,5′S*)-1,2′,5′,7,7-pentamethylspiro[bicyclo[2.2.1]heptane-2,4′-[1,3]dioxane] was obtained in 38% overall yield following the experimental procedure of Example 1c, starting from the diol mixture 2d obtained from rac-camphor via 2-(1-methylallyl)-1,7,7-trimethylbicyclo[2.2.1]heptan-2-ol (5a), applying the methodology of Kostova et al (Helv. Chim. Acta 1999, 82, 1385), i.e. route III. The epimeric intermediate enols and diols were not separated. (1R*,2S*,2′S*,4R*,5′S*)- and (1R*,2S*,2′S*,4R*,5′R*)- enatiomeric pairs are the strongest constituents of the mixture. Their relative odour threshold, compared to the whole stereoisomer mixture, were 1:50:4 (rac-1b: rac-1d: 1f).", "values": [
      {"compound": "CC1OCC(C)C2(CC3CCC2(C)C3(C)C)O1", "note": "(racemic) [Compound 1f, (1RS,2SR,2′RS/SR,4RS,5′RS/SR)-1,2′,5′,7,7-Pentamethylspiro[bicyclo[2.2.1]heptane-2,4′-[1,3]dioxane]]", "relative odour threshold": 4},
      {"compound": "CC1OCC(C)C2(CC3CCC2(C)C3(C)C)O1", "note": "(racemic) [rac-1b]", "relative odour threshold": 1},
      {"compound": "CC1OCC(C)C2(CC3CCC2(C)C3(C)C)O1", "note": "(racemic) [rac-1d]", "relative odour threshold": 50}
    ]},
    {"system": "not listed separately", "assay": "Odour description (olfactory evaluation of the compound)", "settings": "stated within the odour description", "values": [
      {"compound": "C[C@@H]1OC[C@H](C)[C@]2(C[C@H]3CC[C@]2(C)C3(C)C)O1", "note": "(single isomer, unassigned) [Compound 1c]", "Odour strength compared to another compound": "weaker than 1b"},
      {"compound": "CC(C)[C@@H]1OC[C@H](C)[C@]2(C[C@H]3CC[C@]2(C)C3(C)C)O1", "note": "[Compound 1j, (1R,2S,2′R,4R,5′S)-2′-Isopropyl-1,5′,7,7-tetramethylspiro[bicyclo[2.2.1]heptane-2,4′-[1,3]dioxane]]", "Odour strength compared to another compound": "weaker than compound 1i"},
      {"compound": "CC[C@@H]1OC[C@H](C)[C@]2(C[C@H]3CC[C@]2(C)C3(C)C)O1", "note": "[Compound 1h, (1R,2S,2′R,4R,5′S)-2′-Ethyl-1,5′,7,7-tetramethylspiro[bicyclo[2.2.1]heptane-2,4′-[1,3]dioxane]]", "Odour strength compared to another compound": "weaker than compound 1g"}
    ]},
    {"system": "panel of trained evaluators", "assay": "Determination of GC-odour threshold concentration", "settings": "gas chromatograph with sniff port; racemic mixture of compounds; group of 4 panelists; identical conditions", "description": "Determination of GC-odour threshold concentration\nAccording to standard procedures known to the person skilled in the art, threshold concentrations for volatile perfumery compounds are determined on a gas chromatograph equipped with a sniff port by a panel of trained evaluators. The lowest concentration smelled by each panellist is recorded as the individual threshold concentration expressed in ng (absolute amount of compound delivered at the sniff port).\nUnder identical conditions the odour threshold concentration for racemic mixture of compounds A, B and C respectively was measured and compared by a group of 4 panelists.", "units": {"odour threshold concentration geometric mean": "ng"}, "values": [
      {"compound": "CC1OCC(C)C2(CC3CCC2(C)C3(C)C)O1", "note": "(stereo not drawn) [C]", "odour threshold concentration geometric mean": 3},
      {"compound": "CC1OCCC2(CC3CCC2(C)C3(C)C)O1", "note": "(racemic) [A]", "odour threshold concentration geometric mean": 22},
      {"compound": "CC1CC2(CC3CCC2(C)C3(C)C)OC(C)O1", "note": "(racemic) [B]", "odour threshold concentration geometric mean": 68}
    ]}
  ]
}
